Reference: PMC6191541, “Small-Molecule Acetylation Controls the Degradation of Benzoate and Photosynthesis in Rhodopseudomonas palustris” (mBio, 2018)

Columns and labels:
[1] = molecular target: T1, BadM (Rhodopseudomonas palustris, UniProt O07465); assay: EMSA with 6-FAM-labelled badDEFGAB promoter probe; conditions: 72 nM BadM, 12 nM probe; 10 mM compound, blocks DNA binding; no effect at 5 mM
T1 construct: plasmid pRpBadM8, expressed in E. coli C41(lambda-DE3) pka12::kan+, purified; tag details in Text S1

[2] = molecular target: T2, GmBadL (Geobacter metallireducens, UniProt Q39TU9); assay: [[…]-14C]acetyl-CoA transfer, TLC phosphor imaging; assay type: biochemical; conditions: co-substrate acetyl-CoA
T2 construct: gene Gmet_2096; plasmid pGmBadL1, expressed in E. coli C41(lambda-DE3) pka12::kan+, purified; tag details in Text S1
T2 sequence (Q39TU9 entry or part of it): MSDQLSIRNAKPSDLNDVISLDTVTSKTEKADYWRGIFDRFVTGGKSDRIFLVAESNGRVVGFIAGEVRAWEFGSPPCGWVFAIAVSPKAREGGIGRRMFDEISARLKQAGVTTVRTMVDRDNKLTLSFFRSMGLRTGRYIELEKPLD

[3] = molecular target: T3, MmBadL (Paramagnetospirillum magneticum, UniProt Q2W1S9); assay: [[…]-14C]acetyl-CoA transfer, TLC phosphor imaging; assay type: biochemical; conditions: co-substrate acetyl-CoA
T3 construct: gene amb3392; plasmid pMmBadL2, expressed in E. coli C41(lambda-DE3) pka12::kan+, purified; tag details in Text S1
T3 sequence (Q2W1S9 entry or part of it): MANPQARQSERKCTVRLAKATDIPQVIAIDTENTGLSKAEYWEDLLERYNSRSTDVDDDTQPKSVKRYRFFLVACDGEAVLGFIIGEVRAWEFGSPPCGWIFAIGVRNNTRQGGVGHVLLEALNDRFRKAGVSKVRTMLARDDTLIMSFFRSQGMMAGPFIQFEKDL

[4] = molecular target: T4, BadM (Rhodopseudomonas palustris) (UniProt O07465); assay: EMSA; conditions: 25 µL; Tris 20 mM pH 7.5 (at 25°C), KCl 50 mM, DTT 1 mM, glycerol (rest of buffer not in the material); probe 12 nM (0.303 pmol), BadM 72 nM (1.8 pmol) …
T4 sequence: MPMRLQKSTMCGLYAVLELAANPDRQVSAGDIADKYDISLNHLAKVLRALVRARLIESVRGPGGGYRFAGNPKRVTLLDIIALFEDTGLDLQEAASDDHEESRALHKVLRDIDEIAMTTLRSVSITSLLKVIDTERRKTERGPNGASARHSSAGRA

CC(=O)Nc1ccccc1C(=O)O [2-ABA^Ac, 2-acetamidobenzoate]
EMSA with 6-FAM-labelled badDEFGAB promoter probe [1]: addition of 2-acetamidobenzoate blocked binding of BadM to its DNA target

Nc1ccc(C(=O)O)cc1 [4-ABA, 4-aminobenzoate]
[1-14C]acetyl-CoA transfer, TLC phosphor imaging [2]: MmBadL and GmBadL acetylated 4-aminobenzoate producing 4-acetamidobenzoate
[1-14C]acetyl-CoA transfer, TLC phosphor imaging [3]: MmBadL and GmBadL acetylated 4-aminobenzoate producing 4-acetamidobenzoate

GTGATGCGGCCTGTCGAGCATGCCGGTCGTCCTCCCTGCCCGGCGGCTCTGCCGGGTCGCGCTGCCGGCCATTTTCCGGCCCAGCGATTTAAATGTAATCTAGTATCGGAATGCGATAATTAATTTGATGCGGATCAAATTTGGCAAAGGCACAGCCGACACGGGCCGACGCCGGCTCGTAGTCGGGAGGCTCAGATATCGATCGCGATCTT (double strand) [badDEFGAB promoter / badCD intergenic probe]
binding [4]: binds
